{
  "source": "ChEMBL document CHEMBL1132622",
  "about": "“Synthesis, structure-activity relationships, and in vivo evaluations of substituted di-tert-butylphenols as a novel class of potent, selective, and orally active cyclooxygenase-2 inhibitors. 2. 1,3,4- and 1,2,4-thiadiazole series” (J Med Chem, 1999)",
  "key": {"[1]": {"target": "Prostaglandin G/H synthase 1 (Homo sapiens, UniProt P23219)", "sequence (P23219 whole entry)": "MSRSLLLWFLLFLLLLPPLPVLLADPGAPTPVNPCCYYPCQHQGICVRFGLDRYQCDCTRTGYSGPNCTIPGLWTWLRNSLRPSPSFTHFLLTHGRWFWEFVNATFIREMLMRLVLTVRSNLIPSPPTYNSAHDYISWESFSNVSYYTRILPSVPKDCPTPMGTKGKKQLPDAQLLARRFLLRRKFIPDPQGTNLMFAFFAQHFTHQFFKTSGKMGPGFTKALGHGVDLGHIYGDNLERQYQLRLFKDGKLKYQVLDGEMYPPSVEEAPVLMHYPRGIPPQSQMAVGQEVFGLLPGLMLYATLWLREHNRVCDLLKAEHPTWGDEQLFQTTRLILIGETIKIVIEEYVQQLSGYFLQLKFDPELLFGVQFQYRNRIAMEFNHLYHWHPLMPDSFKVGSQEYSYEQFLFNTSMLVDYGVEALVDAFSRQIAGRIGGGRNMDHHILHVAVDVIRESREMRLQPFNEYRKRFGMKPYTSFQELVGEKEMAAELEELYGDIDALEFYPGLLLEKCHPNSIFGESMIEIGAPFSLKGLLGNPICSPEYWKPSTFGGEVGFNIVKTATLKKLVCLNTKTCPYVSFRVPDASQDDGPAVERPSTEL", "assay": "IC50 value against Prostaglandin G/H synthase 1 of human platelet rich plasma; call rule not given here", "assay_type": "cell-free"}, "[2]": {"target": "T1, Prostaglandin G/H synthase 1 (Ovis aries) (UniProt P05979)", "T1 sequence (whole entry)": "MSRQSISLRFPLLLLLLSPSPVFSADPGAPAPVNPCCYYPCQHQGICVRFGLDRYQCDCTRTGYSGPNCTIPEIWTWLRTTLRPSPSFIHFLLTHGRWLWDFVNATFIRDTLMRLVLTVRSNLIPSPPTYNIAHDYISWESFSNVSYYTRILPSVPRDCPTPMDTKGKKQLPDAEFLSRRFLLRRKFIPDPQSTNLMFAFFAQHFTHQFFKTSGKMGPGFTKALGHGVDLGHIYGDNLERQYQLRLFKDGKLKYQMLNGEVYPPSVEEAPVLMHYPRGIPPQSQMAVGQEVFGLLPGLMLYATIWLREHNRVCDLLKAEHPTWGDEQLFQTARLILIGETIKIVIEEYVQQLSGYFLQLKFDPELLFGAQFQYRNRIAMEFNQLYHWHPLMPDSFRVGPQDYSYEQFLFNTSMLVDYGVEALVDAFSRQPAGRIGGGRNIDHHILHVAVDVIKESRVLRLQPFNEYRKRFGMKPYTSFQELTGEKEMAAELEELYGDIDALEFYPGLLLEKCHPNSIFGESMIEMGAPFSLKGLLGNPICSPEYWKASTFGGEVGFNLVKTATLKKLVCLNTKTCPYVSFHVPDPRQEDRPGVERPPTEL", "assay": "IC50 value against ovine Prostaglandin G/H synthase 1 at 10 uM"}, "[3]": {"target": "T2, Prostaglandin G/H synthase 2 (Mus musculus, UniProt Q05769)", "T2 sequence (Q05769 whole entry)": "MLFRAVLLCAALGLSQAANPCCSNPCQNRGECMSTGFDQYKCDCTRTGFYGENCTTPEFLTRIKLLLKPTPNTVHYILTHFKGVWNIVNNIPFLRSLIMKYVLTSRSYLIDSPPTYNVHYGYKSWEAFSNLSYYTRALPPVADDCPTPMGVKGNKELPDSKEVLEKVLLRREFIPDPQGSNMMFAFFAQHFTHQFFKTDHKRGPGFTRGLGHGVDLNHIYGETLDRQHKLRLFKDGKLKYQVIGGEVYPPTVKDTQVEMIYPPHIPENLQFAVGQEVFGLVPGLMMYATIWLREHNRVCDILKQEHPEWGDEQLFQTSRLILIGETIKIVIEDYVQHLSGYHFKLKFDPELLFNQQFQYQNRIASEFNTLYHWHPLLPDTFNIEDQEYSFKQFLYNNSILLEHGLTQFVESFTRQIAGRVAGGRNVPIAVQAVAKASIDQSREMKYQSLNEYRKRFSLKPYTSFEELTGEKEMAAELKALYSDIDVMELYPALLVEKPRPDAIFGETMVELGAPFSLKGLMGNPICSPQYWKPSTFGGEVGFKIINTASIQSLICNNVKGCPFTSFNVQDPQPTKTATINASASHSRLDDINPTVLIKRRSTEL"}, "[4]": {"target": "T3, Prostaglandin G/H synthase 2 (Homo sapiens) (UniProt P35354)", "T3 sequence (whole entry)": "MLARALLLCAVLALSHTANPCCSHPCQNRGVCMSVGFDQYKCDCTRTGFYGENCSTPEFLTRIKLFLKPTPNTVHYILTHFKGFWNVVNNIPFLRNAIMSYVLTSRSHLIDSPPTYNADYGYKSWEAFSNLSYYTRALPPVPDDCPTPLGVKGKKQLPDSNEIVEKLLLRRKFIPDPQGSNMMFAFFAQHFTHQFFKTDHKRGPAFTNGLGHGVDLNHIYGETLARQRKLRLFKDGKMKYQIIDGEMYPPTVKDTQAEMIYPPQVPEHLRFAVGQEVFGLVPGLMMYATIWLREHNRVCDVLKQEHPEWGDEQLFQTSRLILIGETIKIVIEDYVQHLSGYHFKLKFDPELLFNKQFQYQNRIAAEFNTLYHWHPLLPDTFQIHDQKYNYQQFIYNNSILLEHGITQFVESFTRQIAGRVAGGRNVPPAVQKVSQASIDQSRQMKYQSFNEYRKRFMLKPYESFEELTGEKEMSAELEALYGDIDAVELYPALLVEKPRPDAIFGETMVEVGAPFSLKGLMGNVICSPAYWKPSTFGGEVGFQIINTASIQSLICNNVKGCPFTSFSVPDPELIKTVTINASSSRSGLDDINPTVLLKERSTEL", "assay": "IC50 value against recombinant human Prostaglandin G/H synthase 2 at 10 uM"}, "[5]": {"target": "T4, Prostaglandin G/H synthase 2 (Homo sapiens, UniProt P35354)", "T4 sequence (P35354 whole entry)": "T3 sequence (whole entry)", "assay": "Inhibition of recombinant human prostaglandin G/H synthase 2 (COX-2)"}, "[6]": {"target": "T5, Prostaglandin G/H synthase 1 (Ovis aries, UniProt P05979)", "T5 sequence (P05979 whole entry)": "T1 sequence (whole entry)", "assay": "IC50 value against ovine Prostaglandin G/H synthase 1"}, "Rattus norvegicus [7]": {"organism": "Rattus norvegicus", "assay": "ED50 was measured by CFE assay method.", "assay_type": "functional"}, "Rattus norvegicus [8]": {"organism": "Rattus norvegicus", "assay": "ED50 was measured by hyperalgesia assay method.", "assay_type": "functional"}, "Rattus norvegicus [9]": {"organism": "Rattus norvegicus", "assay": "Percentage of gastric damage was measured in rats.", "assay_type": "functional, Stomach"}, "Rattus norvegicus [10]": {"organism": "Rattus norvegicus", "assay": "Percentage inhibition of the prostaglandin synthesis was measured in rats.", "assay_type": "functional"}, "[11]": {"target": "T2, Prostaglandin G/H synthase 2", "assay": "IC50 value against Prostaglandin G/H synthase 2 of murine J774A.1 cell line"}, "Rattus norvegicus [12]": {"organism": "Rattus norvegicus", "assay": "Lesion frequency was measured in rats.", "assay_type": "functional"}, "[13]": {"target": "T1, Prostaglandin G/H synthase 1 (Ovis aries)", "assay": "IC50 value against ovine Prostaglandin G/H synthase 1 at 30 uM"}},
  "data": [
    {"smiles": "CSc1nc(-c2cc(C(C)(C)C)c(O)c(C(C)(C)C)c2)ns1", "values": [
      {"measurement": "IC50", "setting": "[1]", "value": 3600, "unit": "nM"},
      {"measurement": "inhibition", "setting": "[2]", "value": 16, "unit": "%"},
      {"measurement": "IC50", "setting": "[3]", "value": 260, "unit": "nM"},
      {"measurement": "inhibition", "setting": "[4]", "value": 20, "unit": "%"}
    ]},
    {"smiles": "CSc1nnc(-c2cc(C(C)C)c(O)c(C(C)C)c2)s1", "values": [
      {"measurement": "inhibition", "setting": "[2]", "value": 25, "unit": "%"},
      {"measurement": "IC50", "setting": "[3]", "value": "> 20000", "unit": "nM"},
      {"measurement": "inhibition", "setting": "[4]", "value": 14, "unit": "%"}
    ]},
    {"smiles": "CCSc1nnc(-c2nc(C(C)(C)C)c(O)c(C(C)(C)C)n2)s1", "values": [
      {"measurement": "IC50", "setting": "[1]", "value": 680, "unit": "nM"},
      {"measurement": "IC50", "setting": "[5]", "value": 2000, "unit": "nM"},
      {"measurement": "inhibition", "setting": "[2]", "value": 39, "unit": "%"},
      {"measurement": "IC50", "setting": "[3]", "value": 18, "unit": "nM"}
    ]},
    {"smiles": "CC(C)(C)c1cc(-c2nnc(NC#N)s2)cc(C(C)(C)C)c1O", "values": [
      {"measurement": "IC50", "setting": "[6]", "value": "> 20000", "unit": "nM"},
      {"measurement": "ED50", "setting": "Rattus norvegicus [7]", "value": 7.7, "unit": "mg/kg"},
      {"measurement": "IC50", "setting": "[1]", "value": 3600, "unit": "nM"},
      {"measurement": "ED50", "setting": "Rattus norvegicus [8]", "value": 1.3, "unit": "mg/kg"},
      {"measurement": "IC50", "setting": "[5]", "value": "> 20000", "unit": "nM"},
      {"measurement": "Damaged area", "setting": "Rattus norvegicus [9]", "value": 0.02, "unit": "%"},
      {"measurement": "Inhibition", "setting": "Rattus norvegicus [10]", "value": 22, "unit": "%"},
      {"measurement": "IC50", "setting": "[11]", "value": "Not Active"},
      {"measurement": "Lesion frequency", "setting": "Rattus norvegicus [12]", "value": 12.5, "unit": "%"}
    ]},
    {"smiles": "COc1ccc2c(c1)c(CC(=O)O)c(C)n2C(=O)c1ccc(Cl)cc1", "note": "[INDOMETHACIN]", "values": [
      {"measurement": "ED50", "setting": "Rattus norvegicus [7]", "value": 1.6, "unit": "mg/kg"},
      {"measurement": "ED50", "setting": "Rattus norvegicus [8]", "value": 0.6, "unit": "mg/kg"},
      {"measurement": "Damaged area", "setting": "Rattus norvegicus [9]", "value": 0.18, "unit": "%"},
      {"measurement": "Inhibition", "setting": "Rattus norvegicus [10]", "value": 13.36, "unit": "%"},
      {"measurement": "Lesion frequency", "setting": "Rattus norvegicus [12]", "value": 75, "unit": "%"}
    ]},
    {"smiles": "CC(C)(C)c1cc(-c2nsc(NC#N)n2)cc(C(C)(C)C)c1O", "values": [
      {"measurement": "IC50", "setting": "[6]", "value": 32000, "unit": "nM"},
      {"measurement": "ED50", "setting": "Rattus norvegicus [7]", "value": 5.8, "unit": "mg/kg"},
      {"measurement": "IC50", "setting": "[1]", "value": 1200, "unit": "nM"},
      {"measurement": "ED50", "setting": "Rattus norvegicus [8]", "value": 0.2, "unit": "mg/kg"},
      {"measurement": "IC50", "setting": "[5]", "value": 47, "unit": "nM"},
      {"measurement": "Damaged area", "setting": "Rattus norvegicus [9]", "value": 4.91, "unit": "%"},
      {"measurement": "Inhibition", "setting": "Rattus norvegicus [10]", "value": 87.7, "unit": "%"},
      {"measurement": "IC50", "setting": "[3]", "value": 26, "unit": "nM"},
      {"measurement": "Lesion frequency", "setting": "Rattus norvegicus [12]", "value": 87.5, "unit": "%"}
    ]},
    {"smiles": "CC(C)(C)c1cc(-c2nnc(N)s2)cc(C(C)(C)C)c1O", "values": [
      {"measurement": "IC50", "setting": "[1]", "value": 530, "unit": "nM"},
      {"measurement": "IC50", "setting": "[5]", "value": 3500, "unit": "nM"},
      {"measurement": "inhibition", "setting": "[13]", "value": 34, "unit": "%"},
      {"measurement": "IC50", "setting": "[3]", "value": 110, "unit": "nM"}
    ]},
    {"smiles": "CC(C)(C)c1cc(-c2nnc(N=C(N)N)o2)cc(C(C)(C)C)c1O", "values": [
      {"measurement": "IC50", "setting": "[1]", "value": 2800, "unit": "nM"},
      {"measurement": "IC50", "setting": "[5]", "value": 23000, "unit": "nM"},
      {"measurement": "inhibition", "setting": "[13]", "value": 16, "unit": "%"},
      {"measurement": "IC50", "setting": "[3]", "value": 330, "unit": "nM"}
    ]}
  ]
}
